This note sets out measurements from patent US11059809B2, “Substituted cyanopyrrolidines with activity as DUB inhibitors” (MISSION THERAPEUTICS LIMITED, priority 2017, dated 2021).

As usually defined, the IC50 is the midpoint of a concentration-inhibition curve. Low values mean inhibition by little substance, high ones a need for much substance.

Molecules are shown by their SMILES.

This assay deals with USP30 (Homo sapiens (Human), UniProt Q70CQ3). Briefly: USP30 Biochemical IC50 Assay. The note with it: fluorescence polarisation, TAMRA labelled peptide linked to ubiquitin as substrate. How it is done: Dilution plates were prepared at 21 times the final concentration (2100 μM for a final concentration of 100 μM) in 50% DMSO in a 96-well polypropylene V-bottom plate (Greiner #651201). A typical 8-point dilution series would be 100, 30, 10, 3, 1, 0.3, 0.1, 0.03 μM final. Reactions were performed in duplicate in black 384 well plates (small volume, Greiner 784076) in a final reaction volume of 21 μl. Either 1 μl of 50% DMSO or diluted compound was added to the plate. USP30 was diluted in reaction buffer (40 mM Tris, pH 7.5, 0.005% Tween 20, 0.5 mg/ml BSA, 5 mM beta-mercaptoethanol) to the equivalent of 0.05 μl/well and 10 μl of diluted USP30 was added to the compound. Enzyme and compound were incubated for 30 min at room temp. Reactions were initiated by the addition of 50 nM of TAMRA labelled peptide linked to ubiquitin via an iso-peptide bond as fluorescence polarisation substrate. Reactions were read immediately after addition of substrate and following a 2-hour incubation at room temperature. Readings were performed on a Pherastar Plus (BMG Labtech). λ Excitation 540 nm; λ Emission 590 nm.
Chain of USP30 (Q70CQ3 whole entry): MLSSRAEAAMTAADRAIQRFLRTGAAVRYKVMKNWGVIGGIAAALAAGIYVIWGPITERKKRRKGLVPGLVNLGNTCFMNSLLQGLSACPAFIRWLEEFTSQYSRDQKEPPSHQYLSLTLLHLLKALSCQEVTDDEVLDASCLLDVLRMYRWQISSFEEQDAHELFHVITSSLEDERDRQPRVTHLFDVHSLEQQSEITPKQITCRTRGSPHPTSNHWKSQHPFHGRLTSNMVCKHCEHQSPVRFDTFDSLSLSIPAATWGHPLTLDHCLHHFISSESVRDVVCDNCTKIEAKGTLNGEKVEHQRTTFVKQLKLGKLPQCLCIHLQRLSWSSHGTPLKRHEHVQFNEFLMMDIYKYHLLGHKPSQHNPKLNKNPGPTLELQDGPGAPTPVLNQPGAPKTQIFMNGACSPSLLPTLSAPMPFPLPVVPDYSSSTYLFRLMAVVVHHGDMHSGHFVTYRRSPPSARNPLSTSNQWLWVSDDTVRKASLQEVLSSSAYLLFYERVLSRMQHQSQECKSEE
A general note: Polarisation of emitted light reports the rotation of a fluorescent probe.
As for `C[C@@H]1[C@H](CNC(=O)c2ncn(-c3cccc(C#N)c3)n2)CCN1C#N` (mixture of isomers) [Example 4, N-(((2R,3R)-1-cyano-2-methylpyrrolidin-3-yl)methyl)-1-(3-cyanophenyl)-1H-1,2,4-triazole-3-carboxamide and N-(((2R,3S)-1-cyano-2-methylpyrrolidin-3-yl)methyl)-1-(3-cyanophenyl)-1H-1,2,4-triazole-3-carboxamide], the half-maximal inhibitory concentration (IC50) was 10 to 100 nM.
`N#CN1CC[C@H](CNC(=O)c2cnn(-c3cccc(Cl)c3)n2)C1` [Example 7, (R)-2-(3-chlorophenyl)-N-((1-cyanopyrrolidin-3-yl)methyl)-2H-1,2,3-triazole-4-carboxamide] showed an IC50 of under 10 nM.
Then `CN(C[C@H]1CCN(C#N)C1)C(=O)c1ncn(-c2cccc(C#N)c2)n1` [Example 2, (S)-1-(3-cyanophenyl)-N-((1-cyanopyrrolidin-3-yl)methyl)-N-methyl-1H-1,2,4-triazole-3-carboxamide], with 10 to 100 nM; and `N#Cc1cccc(-n2cc(C(=O)NC[C@H]3CCN(C#N)C3)nn2)c1` [Example 5, (R)-1-(3-cyanophenyl)-N((1-cyanopyrrolidin-3-yl)methyl)-1H-1,2,3-triazole-4-carboxamide], with 100 to 1000 nM.
